We go through 24 molecules from patent US7435837B2, “Dihydrobenzofuranyl alkanamine derivatives and methods for using same” (Wyeth, priority 2003, dated 2008).

Where “and” joins values, the source holds several entries; their conditions need not be identical. Identical values can stand only once. Counter-ions that a name gives are not always drawn.

By melting point is commonly meant the temperature, or range, at which the solid turns liquid. For `NCC1Cc2cccc(-c3ccccc3Cl)c2O1` (racemic) (as salt: hydrochloride) [Example 60, (±)-1-[7-(2-chlorophenyl)-2,3-dihydro-1-benzofuran-2-yl]methanamine], the melting point is greater than 250 °C.

`NCC1Cc2cccc(-c3cccc4ccccc34)c2O1` (racemic) (as salt: hydrochloride) [Example 33, (±)-1-[7-(1-naphthyl)-2,3-dihydro-1-benzofuran-2-yl]methanamine] showed a melting point of 120 to 124 °C.

Regarding `CN(C)C[C@H]1Cc2cc(F)cc(-c3c(Cl)cccc3Cl)c2O1` (as salt: hydrochloride) [Example 547, (R)-[7-(2,6-dichloro-phenyl)-5-Fluoro-2,3-dihydro-benzofuran-2-ylmethyl]dimethylamine], the melting point was in the range of 156 to 158 °C.

For `CC(C)(C)c1cccc2c1OC(CN)C2` (single isomer, unassigned; (+)) (as salt: hydrochloride) [Example 26, (+)-1-(7-tert-butyl-2,3-dihydro-1-benzofuran-2-yl)methanamine], the melting point lay in the range of 177 to 179 °C.

With `NCC1Cc2cc(F)cc(-c3ccccc3C(F)(F)F)c2O1` (racemic) (as salt: hydrochloride) [Example 108, (±)-1-{5-fluoro-7-[2-(trifluoromethyl)phenyl]-2,3-dihydro-1-benzofuran-2-yl}methanamine], the melting point was 196 to 198 °C (dec.).

With `Cc1cccc(-c2cc(Cl)cc3c2OC(CN)C3)c1` (racemic) (as salt: hydrochloride) [Example 88, (±)-1-[5-chloro-7-(3-methylphenyl)-2,3-dihydro-1-benzofuran-2-yl]methanamine], the melting point was in the range of 268 to 271 °C.

Turning to `NCC1Cc2cccc(-c3cccc(F)c3)c2O1` (racemic) (as salt: hydrochloride) [Example 64, (±)-1-[7-(3-fluorophenyl)-2,3-dihydro-1-benzofuran-2-yl]methanamine], the melting point is 200 to 202 °C.

As for `CC1(CN)Cc2cc(Cl)cc(-c3ccsc3)c2O1` (racemic) (as salt: hydrochloride) [Example 113, (±)-(5-chloro-2-methyl-7-thien-3-yl-2,3-dihydro-1-benzofuran-2-yl)methylamine], the melting point is 295 to 298 °C (dec.).

In turn, `NCCC1Cc2cc(F)cc(-c3c(Cl)cccc3Cl)c2O1` (racemic) (as salt: hydrochloride) [Example 553, (±)-{2-[7-(2,6-dichlorophenyl)-5-fluoro-2,3-dihydro-1-benzofuran-2-yl]ethyl}amine] displayed a melting point of 212 to 213 °C.

Molecule `COc1cccc(-c2cccc3c2OC(CN)C3)c1` (racemic) (as salt: hydrochloride) [Example 68, (±)-1-[7-(3-methoxyphenyl)-2,3-dihydro-1-benzofuran-2-yl]methanamine] had a melting point of 152 to 154 °C.

Molecule `NCC1Cc2cccc(-c3ccccc3Cl)c2O1` (single isomer, unassigned; (-)) (as salt: hydrochloride) [Example 129, (−)-1-[7-(2-chlorophenyl)-2,3-dihydro-1-benzofuran-2-yl]methanamine] had a melting point of 186 to 188 °C.

`Cc1cccc(-c2cccc3c2OC(CN)C3)c1` (single isomer, unassigned; (+)) (as salt: hydrochloride) [Example 42, (+)-1-[7-(3-methylphenyl)-2,3-dihydro-1-benzofuran-2-yl]methanamine] returned a melting point of 196 to 198 °C.

With `CCNCC1Cc2cccc(-c3c(Cl)cccc3Cl)c2O1` (racemic) (as salt: hydrochloride) [Example 390, (±)-N-{[7-(2,6-dichlorophenyl)-2,3-dihydro-1-benzofuran-2-yl]methyl}ethanamine], the melting point is 195 to 197 °C.

`COc1ccc(-c2cccc3c2OC(CN)C3)cc1` (racemic) (as salt: hydrochloride) [Example 79, (±)-1-[7-(4-methoxyphenyl)-2,3-dihydro-1-benzofuran-2-yl]methanamine]: the melting point was 176 to 178 °C.

`NCC1Cc2cccc(/C=C/c3ccccc3)c2O1` (racemic) (as salt: hydrochloride) [Example 119, (±)-1-{7-[(E)-2-phenylvinyl]-2,3-dihydro-1-benzofuran-2-yl}methanamine] showed a melting point of 209 to 211 °C.

Molecule `CC(C)c1ccccc1-c1cccc2c1OC(CN)C2` (single isomer, unassigned; (+)) (as salt: hydrochloride) [Example 62, (+)-[7-(2-isopropylphenyl)-2,3-dihydro-1-benzofuran-2-yl]methylamine] registered a melting point of 205 to 206 °C.

In the case of `Cc1ccccc1-c1cccc2c1CC(CN)O2` (single isomer, unassigned; (+)) (as salt: hydrobromid) [Example 5, (+)-1-[4-(2-methylphenyl)-2,3-dihydro-1-benzofuran-2-yl]methanamine], the melting point lay in the range of 232 to 233 °C.

`NCC1Cc2cccc(-c3cccc(Cl)c3)c2O1` (racemic) (as salt: hydrochloride) [Example 65, (±)-1-[7-(3-chlorophenyl)-2,3-dihydro-1-benzofuran-2-yl]methanamine] returned a melting point of 150 to 154 °C.

Molecule `NCC1Cc2cccc(-c3c(Cl)cc(Cl)cc3Cl)c2O1` (racemic) (as salt: hydrochloride) [Example 166, (±)-{[7-(2,4,6-trichlorophenyl)-2,3-dihydro-1-benzofuran-2-yl]methyl}amine] gave a melting point greater than 225 °C.

Take `Cc1ccccc1-c1c(Cl)ccc2c1OC(CN)C2` (racemic) (as salt: hydrochloride) [Example 399, (±)-{[6-chloro-7-(2-methylphenyl)-2,3-dihydro-1-benzofuran-2-yl]methyl}amine]: the melting point fell in the range of 204 to 206 °C.

For the molecule `NC[C@H]1Cc2cc(F)cc(-c3c(Cl)cccc3Cl)c2O1` (as salt: hydrochloride) [Example 550, (−)-{[7-(2,6-dichlorophenyl)-5-fluoro-2,3-dihydro-1-benzofuran-2-yl]methyl}amine], the melting point is 228 to 230 °C and 231 to 233 °C.

In turn, `Cc1cccc(C)c1-c1cccc2c1OC(CN)C2` (racemic) (as salt: hydrochloride) [Example 56, (±)-1-[7-(2,6-dimethylphenyl)-2,3-dihydro-1-benzofuran-2-yl]methanamine] registered a melting point greater than 250 °C.

`Cc1cc(Cl)ccc1-c1cc(F)cc2c1O[C@@H](CN)C2` (as salt: hydrochloride) [Example 549, {[(2R)-7-(4-chloro-2-methylphenyl)-5-fluoro-2,3-dihydro-1-benzofuran-2-yl]methyl}amine] returned a melting point of 183 to 185 °C.

`NCC1Cc2cc(F)cc(-c3ccccc3)c2O1` (racemic) (as salt: hydrochloride) [Example 103, (±)-1-(5-fluoro-7-phenyl-2,3-dihydro-1-benzofuran-2-yl)methanamine] came in with a melting point of 255 to 260 °C.
